Experiments:
[1] = molecular target: T1, Adrenergic receptor alpha-1 (Rattus norvegicus, UniProt P15823+P23944+P43140); assay: Inhibitory concentration against Alpha-1 adrenergic receptor in rat cerebral cortex membrane using [3H]prazosin as radioligand; format: cell membranes
T1 sequence (P15823 whole entry): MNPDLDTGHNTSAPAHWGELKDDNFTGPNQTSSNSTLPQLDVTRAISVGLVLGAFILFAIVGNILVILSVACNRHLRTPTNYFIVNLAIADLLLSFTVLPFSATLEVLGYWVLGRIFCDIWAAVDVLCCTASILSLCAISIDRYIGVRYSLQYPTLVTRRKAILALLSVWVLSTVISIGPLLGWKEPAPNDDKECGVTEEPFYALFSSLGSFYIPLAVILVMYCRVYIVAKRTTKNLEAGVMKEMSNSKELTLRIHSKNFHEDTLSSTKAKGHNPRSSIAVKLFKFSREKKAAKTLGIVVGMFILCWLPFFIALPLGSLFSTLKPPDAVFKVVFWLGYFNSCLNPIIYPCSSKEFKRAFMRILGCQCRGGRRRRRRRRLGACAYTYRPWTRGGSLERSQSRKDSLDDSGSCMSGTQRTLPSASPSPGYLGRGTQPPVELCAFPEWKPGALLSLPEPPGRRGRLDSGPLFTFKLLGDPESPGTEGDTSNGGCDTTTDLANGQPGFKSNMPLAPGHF
T1 sequence (P23944 whole entry): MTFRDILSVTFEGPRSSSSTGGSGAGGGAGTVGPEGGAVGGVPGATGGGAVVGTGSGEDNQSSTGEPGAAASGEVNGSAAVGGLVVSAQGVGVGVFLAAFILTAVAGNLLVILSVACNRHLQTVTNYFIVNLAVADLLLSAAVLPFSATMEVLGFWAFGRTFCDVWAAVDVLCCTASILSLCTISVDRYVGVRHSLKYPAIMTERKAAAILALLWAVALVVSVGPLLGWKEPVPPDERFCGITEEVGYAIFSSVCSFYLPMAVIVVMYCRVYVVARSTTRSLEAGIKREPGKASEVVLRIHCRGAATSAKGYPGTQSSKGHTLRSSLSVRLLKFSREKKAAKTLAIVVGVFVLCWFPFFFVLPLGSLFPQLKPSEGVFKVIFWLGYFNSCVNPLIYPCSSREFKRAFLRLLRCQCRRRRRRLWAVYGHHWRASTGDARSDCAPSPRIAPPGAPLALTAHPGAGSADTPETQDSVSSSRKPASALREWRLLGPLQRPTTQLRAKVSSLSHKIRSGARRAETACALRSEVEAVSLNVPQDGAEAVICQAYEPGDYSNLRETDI
T1 sequence (P43140 whole entry): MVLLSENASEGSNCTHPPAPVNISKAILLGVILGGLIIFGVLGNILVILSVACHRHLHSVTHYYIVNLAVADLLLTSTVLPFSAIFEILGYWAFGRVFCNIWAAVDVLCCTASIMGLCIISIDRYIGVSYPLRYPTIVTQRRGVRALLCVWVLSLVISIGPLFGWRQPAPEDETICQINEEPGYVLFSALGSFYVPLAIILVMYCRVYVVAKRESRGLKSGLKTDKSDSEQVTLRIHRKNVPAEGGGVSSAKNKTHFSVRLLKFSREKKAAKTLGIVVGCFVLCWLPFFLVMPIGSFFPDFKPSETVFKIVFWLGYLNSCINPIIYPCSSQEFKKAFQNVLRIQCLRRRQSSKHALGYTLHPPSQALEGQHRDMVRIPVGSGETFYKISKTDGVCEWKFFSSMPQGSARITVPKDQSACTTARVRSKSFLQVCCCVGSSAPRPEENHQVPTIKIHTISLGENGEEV

[2] = species on record: Rattus norvegicus; assay: Ratio of dopamine receptor D2 to that of 5-hydroxytryptamine 1A receptor
[3] = molecular target: Serotonin 1a (5-HT1a) receptor/Adrenergic receptor alpha-1 (Rattus norvegicus) (UniProt P15823+P23944+P43140+P19327); assay: Ratio of alpha-1 adrenergic receptor to that of 5-hydroxytryptamine 1A receptor; format: protein assay
[4] = molecular target: T2, 5-hydroxytryptamine receptor 1A (Rattus norvegicus, UniProt P19327); assay: Inhibitory concentration against 5-hydroxytryptamine 1A receptor in rat hippocampus membrane using [3H]-8-OH-DPAT as radioligand; format: cell membranes
T2 sequence (P19327 whole entry): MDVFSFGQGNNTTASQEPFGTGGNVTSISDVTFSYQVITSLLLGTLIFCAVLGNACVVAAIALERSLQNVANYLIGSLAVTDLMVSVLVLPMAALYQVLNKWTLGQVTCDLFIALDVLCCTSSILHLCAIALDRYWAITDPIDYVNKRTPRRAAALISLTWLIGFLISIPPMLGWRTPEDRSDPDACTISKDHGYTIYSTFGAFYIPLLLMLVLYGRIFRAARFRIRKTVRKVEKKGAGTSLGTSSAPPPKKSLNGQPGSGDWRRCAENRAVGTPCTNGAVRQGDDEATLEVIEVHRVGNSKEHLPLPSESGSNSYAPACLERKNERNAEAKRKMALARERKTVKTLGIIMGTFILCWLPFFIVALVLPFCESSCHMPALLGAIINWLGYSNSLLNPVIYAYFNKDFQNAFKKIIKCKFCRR

[5] = molecular target: D(2) dopamine receptor (Rattus norvegicus, UniProt P61169); assay: Inhibitory concentration against Dopamine receptor D2 in rat striatum membrane using [3H]raclopride as radioligand; format: cell membranes
D(2) dopamine receptor, sequence (P61169 whole entry): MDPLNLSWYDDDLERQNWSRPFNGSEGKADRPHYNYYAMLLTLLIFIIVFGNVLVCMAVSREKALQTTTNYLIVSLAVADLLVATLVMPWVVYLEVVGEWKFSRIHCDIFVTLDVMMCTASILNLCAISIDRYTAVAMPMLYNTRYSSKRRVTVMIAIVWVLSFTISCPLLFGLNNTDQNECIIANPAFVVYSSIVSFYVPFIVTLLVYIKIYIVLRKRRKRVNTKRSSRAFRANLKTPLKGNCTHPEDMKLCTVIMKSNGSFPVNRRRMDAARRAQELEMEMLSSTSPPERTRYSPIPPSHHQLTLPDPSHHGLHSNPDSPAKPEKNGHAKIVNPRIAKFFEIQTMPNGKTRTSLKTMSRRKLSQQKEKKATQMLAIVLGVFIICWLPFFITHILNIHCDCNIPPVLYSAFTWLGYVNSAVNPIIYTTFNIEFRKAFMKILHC

`O=C1c2ccccc2OC=C(Cl)N1CCCCN1CCN(c2ncccn2)CC1` showed an IC50 [1] of 544 nM, a Ratio [2] of 125 and a Ratio [3] of 342.
`O=C1c2ccccc2OC=C(Cl)N1CCCCN1CCCC(c2ncccn2)C1` (stereo not given) gave an IC50 [4] of 314 nM.
With `O=C1c2ccccc2OC=C(Cl)N1CCCCN1CCN(c2ccccn2)CC1` the IC50 [1] was 43 nM, the Ratio [2] was 66 and the Ratio [3] was 56.
`O=C(O)/C=C/C(=O)O.O=C1c2ccccc2OC=C(Cl)N1CCCCN1CCC=C(c2ncccn2)C1` was tested, and the IC50 [1] was 384 nM, the IC50 [4] was 79.6 nM and the IC50 [5] was 893 nM. The Ratio [2] was 11 and the Ratio [3] was 4.8.
`Cl.O=C1c2ccccc2OC=C(Cl)N1CCCCN1CC=C(c2ncccn2)CC1` gave an IC50 [1] of 924 nM, a Ratio [2] of 358 and a Ratio [3] of 670.
`Cl.O=C1c2ccccc2OC=C(Cl)N1CCCCN1CCC(O)(c2ncccn2)CC1` showed an IC50 [1] of 9560 nM and a Ratio [3] of 3.6.
Work on `Cl.O=C1c2ccccc2OC=C(Cl)N1CCCCN1CCC(c2ncccn2)CC1` yielded an IC50 [1] of 2000 nM, a Ratio [2] of 310 and a Ratio [3] of 344.
